These results are taken from patent publication US11083770B2, “Medical preparation and method for enhancing tissue oxygenation in case of diabetic foot” (priority 2017, dated 2021).

For series [1], the system named is white mongrel rats. To be noted: rat, in vivo.
Series [2] relates to white mongrel male mice. The series is described as follows: Acute toxicity, Kerber's method, single intramuscular dose.

Peptide text beside a SMILES is read from it.

For the compound `N[C@@H](CCC(=O)O)C(=O)N[C@@H](Cc1c[nH]c2ccccc12)C(=O)O` [L-Glu-L-Trp, L-glutamic-L-tryptophan acid] (H-Glu-Trp-OH; N-terminus and C-terminus assumed), the “Side effects from long-term administration” value in series [1] is given as “absence of side effects”. In addition, the Acute toxic reactions result in series [2] (doses exceeding the therapeutic dose by several thousand times) is “does not cause acute toxic reactions”. In series [2] (mice, single i.m. 1, 2, 3, 4, 5 mg/kg, within 72 hours and further 14 days), the Death of animals entry is recorded as “Death of animals did not take place in any of the groups”.
